Results as given in ChEMBL document CHEMBL4033705, “Screening for bioactive natural products from a 67-compound library of Glycyrrhiza inflata” (Bioorg Med Chem, 2017).
Where a SMILES comes first, the peptide text is derived from it. The star is where a group is joined. Cbz = O=C(OCc1ccccc1)*

Experiments:
SW480 [1] = experiment: Cytotoxicity against human SW480 cells assessed as reduction in cell viability after 24 hrs by MTS assay; assay type: functional, cell-based; conditions: SW480, 24 h
MCF7 [2] = experiment: Growth inhibition of human MCF7 cells at 10 uM after 24 hrs by MTS assay relative to control; assay type: functional; conditions: MCF7, 24 h, read-out: GI
[3] = target: Mushroom tyrosinase (Agaricus bisporus) (UniProt O42713+Q00024+C7FF04+C7FF05); experiment: Inhibition of mushroom tyrosinase at 10 uM using L-tyrosine as substrate incubated for 15 mins followed by substrate addition relative to control
[4] = target: T1, Tyrosine-protein phosphatase non-receptor type 1 (Homo sapiens) (UniProt P18031); experiment: Inhibition of recombinant human PTP1B using p-nitrophenyl phosphate as substrate at 10 uM after 30 mins relative to control
T1 sequence (whole entry): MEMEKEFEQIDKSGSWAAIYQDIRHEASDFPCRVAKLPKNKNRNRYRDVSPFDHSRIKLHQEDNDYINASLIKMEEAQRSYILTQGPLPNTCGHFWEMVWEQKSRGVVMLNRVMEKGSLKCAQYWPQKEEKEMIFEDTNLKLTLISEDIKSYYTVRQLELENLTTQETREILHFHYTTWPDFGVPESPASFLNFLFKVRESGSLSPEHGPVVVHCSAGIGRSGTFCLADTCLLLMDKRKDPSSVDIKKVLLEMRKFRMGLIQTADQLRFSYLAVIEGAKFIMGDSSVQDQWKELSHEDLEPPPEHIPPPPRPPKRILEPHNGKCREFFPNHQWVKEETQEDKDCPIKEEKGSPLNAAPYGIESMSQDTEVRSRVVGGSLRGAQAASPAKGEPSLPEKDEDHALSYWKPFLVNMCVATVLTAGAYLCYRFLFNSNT

HepG2 [5] = experiment: Growth inhibition of human HepG2 cells at 10 uM after 24 hrs by MTS assay relative to control; assay type: functional; conditions: HepG2, 24 h, read-out: GI
SW480 [6] = experiment: Growth inhibition of human SW480 cells at 10 uM after 24 hrs by MTS assay relative to control; assay type: functional; conditions: SW480, 24 h, read-out: GI
[7] = (§1) Growth inhibition of human LO2 cells at 10 uM after 24 hrs by MTS assay relative to control; assay type: cell-based, L02; conditions: LO2 cells, read-out: GI
[8] = (§2) Growth inhibition of human HEK293T cells at 10 uM after 24 hrs by MTS assay relative to control; assay type: cell-based, HEK-293T; conditions: HEK293T cells, read-out: GI
[9] = target: T2, Tyrosine-protein phosphatase non-receptor type 1 (Homo sapiens, UniProt P18031); experiment: Inhibition of recombinant human PTP1B using p-nitrophenyl phosphate as substrate after 30 mins
T2 sequence (P18031 whole entry): T1 sequence (whole entry)

MCF7 [10] = experiment: Cytotoxicity against human MCF7 cells assessed as reduction in cell viability after 24 hrs by MTS assay; assay type: functional, cell-based; conditions: MCF7, 24 h
RAW264.7 [11] = experiment: Antiinflammatory activity in mouse RAW264.7 cells assessed as inhibition of LPS-induced NO production at 10 uM after 24 hrs by Griess reagent based assay relative to control; assay type: functional; conditions: RAW264.7, 24 h
Homo sapiens [12] = species on record: Homo sapiens; experiment: Inhibition of LPS-induced NF-kappaB transcription (unknown origin) expressed in human SW480 cells at 10 uM by luciferase reporter gene assay; assay type: cell-based
HepG2 [13] = experiment: Cytotoxicity against human HepG2 cells assessed as reduction in cell viability after 24 hrs by MTS assay; assay type: functional, cell-based; conditions: HepG2, 24 h
Homo sapiens [14] = species on record: Homo sapiens; experiment: Inhibition of LPS-induced NF-kappaB transcription (unknown origin) expressed in human SW480 cells at 20 uM by luciferase reporter gene assay; assay type: cell-based
RAW264.7 [15] = experiment: Antiinflammatory activity in mouse RAW264.7 cells assessed as inhibition of LPS-induced NO production at 20 uM after 24 hrs by Griess reagent based assay relative to control; assay type: functional; conditions: RAW264.7, 24 h
RAW264.7 [16] = experiment: Antiinflammatory activity in mouse RAW264.7 cells assessed as inhibition of LPS-induced NO production after 24 hrs by Griess reagent based assay; assay type: functional, cell-based; conditions: RAW264.7, 24 h
[17] = Inhibition of LPS-induced NF-kappaB transcription (unknown origin) expressed in human SW480 cells by luciferase reporter gene assay; assay type: cell-based
Mushroom tyrosinase = Mushroom tyrosinase (Agaricus bisporus, UniProt O42713+Q00024+C7FF04+C7FF05); experiment: Inhibition of mushroom tyrosinase using L-tyrosine as substrate incubated for 15 mins followed by substrate addition
L02 = experiment: as §1; assay type: cell-based; conditions: l02, 24 h, 10 µM
HEK-293T = experiment: as §2; assay type: cell-based; conditions: hek-293t, 24 h, 10 µM

SMILES	IC50 (SW480 [1])	inhibition of growth at 10 µM (MCF7 [2])	inhibition [3]	inhibition [4]	inhibition of growth at 10 µM (HepG2 [5])	inhibition of growth at 10 µM (SW480 [6])	inhibition at 24 h, 10 µM [7]	inhibition at 24 h, 10 µM [8]	IC50 [9]	IC50 (MCF7 [10])	inhibition at 10 µM (RAW264.7 [11])	inhibition (Homo sapiens [12])	IC50 (HepG2 [13])	inhibition (Homo sapiens [14])	inhibition at 20 µM (RAW264.7 [15])	IC50 (RAW264.7 [16])	IC50 [17]	IC50 (Mushroom tyrosinase)	Activity (L02)	Activity (HEK-293T)
CC(C)=CCc1cc([C@@H]2CC(=O)c3ccc(O)c(CC=C(C)C)c3O2)ccc1O [GLABROL]	5.15 µM	97%	8%	92%	98%	98%	16%	36%	0.31 µM	7.62 µM	6%	21%	2.83 µM							
CC(C)C[C@@H](C=O)NC(=O)[C@H](CC(C)C)NC(=O)[C@H](CC(C)C)NC(=O)OCc1ccccc1 (Cbz-Leu-Leu-Leu-aldehyde)														70%						
COc1cc(/C=C/C(=O)CC(=O)/C=C/c2ccc(O)c(OC)c2)ccc1O [CURCUMIN]															70%					
C=C(C)[C@H](C)c1cc(/C=C/C(=O)c2ccc(O)cc2)c(OC)cc1O [LICOCHALCONE E]		42%	8%	21%	23%	44%	22%	34%			55%	72%				9.09 µM	3.83 µM			
CC1(C)C=Cc2cc(-c3coc4cc(O)cc(O)c4c3=O)cc(O)c2O1		15%	95%	58%	5%	29%	7%	0%			14%	8%						0.25 µM		
CC(C)=CCc1c(O)cc2occ(-c3ccc4c(c3O)C=CC(C)(C)O4)c(=O)c2c1O	6.72 µM	79%	7%	34%	75%	99%	16%	39%		8.58 µM	26%	23%	7.07 µM							
CC1(C)C=Cc2c(ccc3c2OC[C@@H](c2ccc(O)cc2O)C3)O1 [GLABRIDIN]		0%	98%	38%	7%	32%	3%	2%			7%	0%						0.1 µM		
COc1c(/C=C/C(=O)c2ccc(O)cc2)ccc(O)c1O		13%	8%	64%	4%	9%	6%	7%			71 to 73%	4%				8.78 µM				
CC(C)=CCc1c(O)cc(O)c2c(=O)cc(-c3ccc(O)cc3)oc12		0%	2%	18%	21%	19%					58%	3%				3.83 µM				
COc1c(/C=C/C(=O)c2ccc(O)c(O)c2)ccc(O)c1CC=C(C)C		21%	11%	75%	5%	21%	9%	28%			85%	80%				9.35 µM	2.44 µM			
CC1(C)C=Cc2c(O)ccc(-c3coc4cc(O)cc(O)c4c3=O)c2O1		28%	90%	36%	22%	15%	24%	1%			21%	12%						0.8 µM		
CC(C)=CCc1c(O)cc2occ(-c3cc(O)c4c(c3)C=CC(C)(C)O4)c(=O)c2c1O	7.87 µM	92%	1%	92%	89%	82%	5%	11%	1.48 µM	7.27 µM	0%	14%	3.54 µM						Non-Toxic	Non-Toxic
CC(C)=CCc1cc([C@@H]2CC(=O)c3c(O)cc(O)c(CC=C(C)C)c3O2)ccc1O [LESPEDEZAFLAVANONE B]	12.5 µM	86%	5%	46%	24%	81%	12%	6%		13.1 µM	14%	34%							Non-Toxic	Non-Toxic
CC(C)=CCc1c(O)ccc(-c2coc3c(CC=C(C)C)c(O)cc(O)c3c2=O)c1O	4.62 µM	88%	7%	96%	80%	98%	20%	10%	0.5 µM	7.47 µM	11%	19%	5.66 µM						Non-Toxic	Non-Toxic
